pIC50: −log10 of the molar value.
Legend:
Type in all cases: in vitro ADME
[1] = Metabolic stability in liver microsomes; settings: mouse, CD-1 mice liver microsomes; for half-life at 1 μM: 1 μM compound, 0.5 mg/mL; for microsomal CLint at 1 μM: read-out: CLint(mic)
Protocol: Experimental objective: to evaluate the metabolic stability of the test compound in CD-1 mice and human liver microsomes
Experimental procedures: first, the test compound (10 mM) was subjected to a two-step dilution, where the compound was diluted to an intermediate concentration of 100 μM with 100% methanol, and the working solution was diluted to 10 μM with a potassium phosphate buffer; eight 96-well incubation plates were prepared, and named T0, T5, T10, T20, T30, T60, Blank and NCF60, respectively; the reaction time points corresponding to the first 6 incubation plates were 0, 5, 10, 20, 30 and 60 min, respectively; for the Blank plate, neither the test compound nor a control compound was added, and for the NCF60 plate, potassium phosphate buffer was used in an incubation of 60 min in place of a NADPH regeneration system solution; 10 μL of the test compound working solution and 80 μL of the microsome working solution (liver microsome protein concentration was 0.625 mg/mL) were added to the T0, T5, T10, T20, T30, T60 and NCF60 plates, while only the microsome working solution was added to the Blank plate, and all the incubation plates were then placed in a 37° C. water bath for pre-incubation for about 10 min; after the pre-incubation, 10 μL of a NADPH regeneration system working solution was added into each sample well of all the plates except the NCF60 plate and T0 plate to start the reaction, and 10 μL of potassium phosphate buffer was added to each well of the NCF60 plate; therefore, in the test compound or control compound samples, the final reaction concentrations of the compound, testosterone, diclofenac and propafenone were 1 μM, the concentration of the liver microsomes was 0.5 mg/mL, and the final concentrations of DMSO and acetonitrile in the reaction system were 0.01% (v/v) and 0.99% (v/v), respectively; after incubation for an appropriate time (such as 5, 10, 20, 30, and 60 min), 300 μL of a stop solution (acetonitrile solution containing 100 ng/mL tolbutamide and 100 ng/mL labetalol) was added to each sample well to stop the reaction; 300 μL of the stop solution and then 10 μL of the NADPH working solution were added to the T0 plate, all the sample plates were shaken and centrifuged in a centrifuge (3220×g) for 20 min, and then 100 μL of supernatant was taken from each well and diluted with 300 μL of pure water for liquid chromatography-tandem mass spectrometry analysis.

CYP1A2 = molecular target: T1, CYP1A2 (Homo sapiens, UniProt P05177); assay: Inhibition of human liver microsomal cytochrome P450 isoenzymes; settings: human liver microsomes
T1 construct: from tissue; host or cells: human liver microsomes
T1 sequence (P05177 1-516): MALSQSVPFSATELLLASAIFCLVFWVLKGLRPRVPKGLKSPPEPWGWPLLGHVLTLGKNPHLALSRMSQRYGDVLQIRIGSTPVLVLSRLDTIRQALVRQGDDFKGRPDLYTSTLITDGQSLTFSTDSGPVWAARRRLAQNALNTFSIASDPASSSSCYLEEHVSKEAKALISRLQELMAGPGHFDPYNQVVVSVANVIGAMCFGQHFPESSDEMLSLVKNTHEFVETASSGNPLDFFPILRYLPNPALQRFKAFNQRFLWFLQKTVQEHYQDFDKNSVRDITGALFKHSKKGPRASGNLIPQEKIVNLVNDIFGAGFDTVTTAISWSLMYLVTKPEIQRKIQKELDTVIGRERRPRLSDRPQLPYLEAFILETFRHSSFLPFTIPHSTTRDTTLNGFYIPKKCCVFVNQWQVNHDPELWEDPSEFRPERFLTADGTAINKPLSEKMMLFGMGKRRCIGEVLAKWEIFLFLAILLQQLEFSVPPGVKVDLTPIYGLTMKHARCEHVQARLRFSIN

CYP3A4 = molecular target: T2, CYP3A4 (Homo sapiens, UniProt P08684); assay: as above; settings: human liver microsomes
T2 construct: from tissue; host or cells: human liver microsomes
T2 sequence (P08684 whole entry): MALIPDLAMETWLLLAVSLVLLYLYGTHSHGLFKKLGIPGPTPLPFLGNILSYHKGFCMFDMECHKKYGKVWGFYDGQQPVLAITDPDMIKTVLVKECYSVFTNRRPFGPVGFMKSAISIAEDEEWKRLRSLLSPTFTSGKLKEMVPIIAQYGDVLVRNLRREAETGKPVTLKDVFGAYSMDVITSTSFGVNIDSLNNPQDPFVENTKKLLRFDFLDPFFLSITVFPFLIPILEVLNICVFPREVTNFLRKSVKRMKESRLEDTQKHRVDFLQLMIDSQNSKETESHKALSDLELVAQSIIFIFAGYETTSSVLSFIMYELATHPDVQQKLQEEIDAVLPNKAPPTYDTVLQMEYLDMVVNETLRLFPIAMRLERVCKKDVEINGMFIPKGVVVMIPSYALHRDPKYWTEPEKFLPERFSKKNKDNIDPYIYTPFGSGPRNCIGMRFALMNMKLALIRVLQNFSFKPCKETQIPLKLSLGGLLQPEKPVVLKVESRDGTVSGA

Row | Compound | CLint scaled at 1 μM [1] [L/h/kg] | half-life at 1 μM [1] [h] | microsomal CLint at 1 μM [1] [µL/min/mg] | pIC50 (CYP1A2) | pIC50 (CYP3A4)
1 | C[C@]1(NC(=O)C(=O)c2c(Cl)c(C(=O)Nc3ccc(F)c(F)c3)c3n2CCC3)CC[C@H](CC(=O)O)CC1 [Compound 18] | < 2.28 | > 2.42 | < 9.6 | < 4.30 | < 4.30
2 | C[C@]1(NC(=O)C(=O)c2c(Cl)c(C(=O)Nc3cc(F)c(F)c(F)c3)c3n2CCC3)CC[C@H](CC(=O)O)CC1 [Compound 25] | < 2.28 | > 2.42 | < 9.6 | < 4.30 | < 4.30

Source: patent publication US20220204510A1, “2,3-DIHYDRO-1H-PYRROLIZINE-7-FORMAMIDE DERIVATIVE AND APPLICATION THEREOF” (CHIA TAI TIANQING PHARMACEUTICAL GROUP CO., LTD., priority 2018, published 2022)
